# Results as given in PubChem BioAssay (NCI).
#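 How tested: cells in 96-well plates exposed to compound for 48 hours at five concentrations. GI50: concentration for 50% inhibition of growth. TGI is the concentration that stops growth completely.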
# How the values were obtained:
# Experiment in all cases: growth of human tumour cells (NCI), 48 h
# [1] = tested on: OVCAR-4 ovarian
# [2] = tested on: PC-3 prostate
# [3] = tested on: SK-MEL-2 melanoma
# [4] = tested on: HCC-2998 colon
# [5] = tested on: SN12C renal
# [6] = tested on: MALME-3M melanoma
# [7] = tested on: KM12 colon
# [8] = tested on: HT29 colon
# [9] = tested on: SR leukemia
# [10] = tested on: 786-0 renal
# [11] = tested on: HL-60(TB) leukemia
# [12] = tested on: EKVX NSCLC
# [13] = tested on: SF-539 CNS
# [14] = tested on: HOP-62 NSCLC
# [15] = tested on: U251 CNS
# [16] = tested on: ACHN renal
# [17] = tested on: K-562 leukemia
# [18] = tested on: T-47D breast
# [19] = tested on: DU-145 prostate
# [20] = tested on: CCRF-CEM leukemia
# [21] = tested on: SF-268 CNS
# [22] = tested on: SK-OV-3 ovarian
# [23] = tested on: SNB-75 CNS
# [24] = tested on: OVCAR-8 ovarian
# [25] = tested on: HCT-15 colon
# [26] = tested on: OVCAR-3 ovarian
# [27] = tested on: LOX IMVI melanoma
# [28] = tested on: NCI-H522 lung
# [29] = tested on: RXF 393 renal
# [30] = tested on: HCT-116 colon
# [31] = tested on: NCI-H226 lung
# [32] = tested on: SW-620 colon
# [33] = tested on: BT-549 breast
# [34] = tested on: SF-295 CNS
# [35] = tested on: IGROV1 ovarian
# [36] = tested on: UACC-62 melanoma
# [37] = tested on: A498 renal
# [38] = tested on: UACC-257 melanoma
# [39] = tested on: MOLT-4 leukemia
# [40] = tested on: HS 578T breast
# [41] = tested on: OVCAR-5 ovarian
# [42] = tested on: M14 melanoma
# [43] = tested on: A549 NSCLC
# [44] = tested on: MCF7 breast
# [45] = tested on: SK-MEL-5 melanoma
# [46] = tested on: UO-31 renal
# [47] = tested on: CAKI-1 renal
# [48] = tested on: COLO 205 colon
# [49] = tested on: NCI/ADR-RES ovarian
# [50] = tested on: SK-MEL-28 melanoma
# [51] = tested on: MDA-MB-231 breast
# [52] = tested on: SNB-19 CNS
# [53] = tested on: MDA-MB-435
# [54] = tested on: NCI-H460 lung
# [55] = tested on: TK-10 renal
# [56] = tested on: NCI-H23 lung
compound,measurement,setting,value
Clc1ccc(CN2COc3c(ccc4cccnc34)C2)cc1Cl,GI50,[1],531 nM
same,TGI,[1],12900 nM
same,GI50,[2],798 nM
same,TGI,[2],11500 nM
same,GI50,[3],2150 nM
same,TGI,[3],7470 nM
same,GI50,[4],2280 nM
same,TGI,[4],8770 nM
same,GI50,[5],2040 nM
same,TGI,[5],13800 nM
same,GI50,[6],2230 nM
same,TGI,[6],9160 nM
same,GI50,[7],1200 nM
same,TGI,[7],4490 nM
same,GI50,[8],4050 nM
same,TGI,[8],15200 nM
same,GI50,[9],354 nM
same,TGI,[9],1410 nM
same,GI50,[10],1990 nM
same,TGI,[10],5850 nM
same,GI50,[11],297 nM
same,TGI,[11],1300 nM
same,GI50,[12],1310 nM
same,TGI,[12],15200 nM
same,GI50,[13],1280 nM
same,TGI,[13],3720 nM
same,GI50,[14],1490 nM
same,TGI,[14],10900 nM
same,GI50,[15],966 nM
same,TGI,[15],13200 nM
same,GI50,[16],525 nM
same,TGI,[16],10600 nM
same,GI50,[17],895 nM
same,TGI,[17],2680 nM
same,GI50,[18],1680 nM
same,TGI,[18],11300 nM
same,GI50,[19],1770 nM
same,TGI,[19],14800 nM
same,GI50,[20],578 nM
same,TGI,[20],3690 nM
same,GI50,[21],1320 nM
same,TGI,[21],12100 nM
same,GI50,[22],1340 nM
same,TGI,[22],13100 nM
same,GI50,[23],2360 nM
same,TGI,[23],13400 nM
same,GI50,[24],730 nM
same,TGI,[24],10200 nM
same,GI50,[25],483 nM
same,TGI,[25],15500 nM
same,GI50,[26],468 nM
same,TGI,[26],12100 nM
same,GI50,[27],1010 nM
same,TGI,[27],2700 nM
same,GI50,[28],1100 nM
same,TGI,[28],2610 nM
same,GI50,[29],1050 nM
same,TGI,[29],4100 nM
same,GI50,[30],712 nM
same,TGI,[30],2780 nM
same,GI50,[31],1280 nM
same,TGI,[31],7120 nM
same,GI50,[32],1280 nM
same,TGI,[32],5390 nM
same,GI50,[33],2460 nM
same,TGI,[33],17500 nM
same,GI50,[34],2350 nM
same,TGI,[34],12600 nM
same,GI50,[35],1050 nM
same,TGI,[35],3610 nM
same,GI50,[36],584 nM
same,TGI,[36],2410 nM
same,GI50,[37],1720 nM
same,TGI,[37],11800 nM
same,GI50,[38],2530 nM
same,TGI,[38],7890 nM
same,GI50,[39],1550 nM
same,TGI,[39],4890 nM
same,GI50,[40],1960 nM
same,TGI,[40],10100 nM
same,GI50,[41],1790 nM
same,TGI,[41],15200 nM
same,GI50,[42],1260 nM
same,TGI,[42],4740 nM
same,GI50,[43],1640 nM
same,TGI,[43],12900 nM
same,GI50,[44],697 nM
same,TGI,[44],3590 nM
same,GI50,[45],971 nM
same,TGI,[45],2900 nM
same,GI50,[46],400 nM
same,TGI,[46],10500 nM
same,GI50,[47],3280 nM
same,TGI,[47],13200 nM
same,GI50,[48],3180 nM
same,TGI,[48],11900 nM
same,GI50,[49],394 nM
same,TGI,[49],2150 nM
same,GI50,[50],1470 nM
same,TGI,[50],14200 nM
same,GI50,[51],1320 nM
same,TGI,[51],9920 nM
same,GI50,[52],1980 nM
same,TGI,[52],14300 nM
same,GI50,[53],1960 nM
same,TGI,[53],9180 nM
same,GI50,[54],532 nM
same,TGI,[54],2520 nM
same,GI50,[55],3350 nM
same,TGI,[55],17900 nM
same,GI50,[56],2560 nM
same,TGI,[56],14900 nM
